Assay results published in US20200377568A1, “Novel IL-4-/IL-13-derived peptide compounds for the treatment or prevention of neurodegenerative or neuroinflammatory diseases” (Universitätsmedizin der Johannes Gutenberg-Universität Mainz, priority 2018, published 2020).
“Also recorded” adds a separate entry of the source. Peptide text beside a SMILES is read from it.

Legend:
[1] = system: CD11b+ bone marrow-derived macrophages (BMDMs); test: Differentiation of bone marrow-derived macrophages; assay type: cell-based, mouse; conditions: different concentrations, FIG. 4A
Experimental: (§1) A-B: Effects of incubation with IL-4 and different concentrations of Link4 and Link13 on the differentiation of A: CD11b^+ bone marrow-derived macrophages (BMDMs) into F80^+CD206^+ cells, and B: CD4^+ T cells into Gata3^+ cells. C-D: FACS results for different populations of T cells and CD11b^+MHCII^+ monocytes/macrophages/microglia of immune cells isolated from C: spleen and D: central nervous system (CNS) of EAE mice treated with PBS, IL-4 or Link4.
(§2) In order to investigate whether Link4 and Link13 are able to modulate immune cells, in vitro assays were performed on bone marrow-derived macrophages (BDMBs) and on naïve T cells.
Murine BMDMs were isolated from adult C57BL/6 mice. The tibia and femur bones were flushed with sterile PBS and the bone marrow was collected in washing medium. After filtering the cell suspension trough a 100 μm nylon mesh, the cells were centrifuged (5 min, 550 g, 4° C.) and resuspended in mouse medium (10% FCS, 1% P/S, 1% L-glutamine, 0.1% β-mercaptoethanol, 1% HEPES in RPMI buffer). For the in vitro generation of BMDMs cells were plated in 6 well-plates and exposed to 20 ng/ml Macrophage […] (M-CSF) for 4 days. For the activation of the cells, Dexametason (5×10^−7M), LPS (10 μg/ml) and IL-4 (10 ng/ml) were added to the culture for the following 3 days.

CD4+ T cells = test: TH2 differentiation of naive T cells; assay type: cell-based, mouse; conditions: different concentrations, FIG. 4B
Experimental: as §1, §2
For the isolation of T lymphocytes 5-8 week old C57BL/6 mice were sacrificed by cervical dislocation and the spleens and lymph nodes (LN) were isolated and rubbed trough a 100 μm cell strainer into a 50 ml tube with washing medium (5% FCS, 1% P/S,1% HEPES in PBS). After washing, the cells were centrifuged for 5 min at 550 g at 4° C. To remove the red blood cells the […] was re-suspended in lysis buffer followed by centrifugation (5 min, 550 g, 4° C.). The cells were resuspended in MACS buffer and magnetic lymphocyte sorting was performed on ice, using the MidiMACS and QuadroMACS Seperators. A CD4 untouched and CD8 touched cell sort was performed a washing step in ml MACS buffer (5 min, 550 g, 4° C.). Cells were incubated with CD4 T cell biotin antibody cocktail (Miltenyi Biotec) in MACS buffer for 5 min at 4° C. Subsequently, anti-biotin microbeads and CD8 microbeads in MACS buffer was added. CD8 microbeads were added to reduce the possible contamination of CD8^+ lymphocytes. After 10 min of incubation at 4° C. the cells were washed again and resuspended in MACS buffer. MACS columns were pre equilibrated and topped with pre-separation filters (30 μm). A maximum of 300×10^6 cells were added to each column followed by 3 consecutive washing steps with MACS buffer. […] The purity of the magnetic cells sorts was assessed by comparing pre- and post-sort samples by flow cytometry. […]

[2] = system: experimental autoimmune encephalomyelitis (EAE) mice; test: EAE clinical score, treatment during the chronic phase; assay type: in vivo, mouse; conditions: chronic phase of EAE, vs PBS
Experimental: To test whether Link4 has similar effects to IL-4 in vivo, two pilot experiments were performed. In the first experiment (FIG. 3A), B16 mice were subjected to EAE and treated with IL-4, Link4, Ph8 and PBS (n=6-7 animals per group) via lumbar intrathecal injection directly into the cerebrospinal fluid (CSF) every other day for 14 days, in the chronic phase of the disease starting from day 5 after the first disease peak (grey bar). […] For better clinical translation, the treatment was then switched to nasal treatment with IL-4 and Link4 (FIG. 3B; 2 pooled experiments, n=15-16 per group). Nasally applied treatments can enter the brain through the cribriform plate, where olfactory nerve fibers cross through the bone, resulting in a connection between the roof of the nasal cavity and the brain (C. F. Xiao, F. J. Davis, B. C. Chauhan, K. L. Viola, P. N. Lacor, P. T. Velasco, W. L. Klein, and N. B. Chauhan, Brain transit and ameliorative effects of intranasally delivered anti-amyloid-beta oligomer antibody in 5XFAD mice. J Alzheimers Dis 35, 777-788 (2013)). Again, both IL-4 and Link4 treatments were beneficial.
For active EAE, female 9-10-weeks-old C57BI6 mice were immunized as previously described (M. Paterka, J. O. Voss, J. Werr, E. Reuter, S. Franck, T. Leuenberger, J. Herz, H. Radbruch, T. Bopp, V. Siffrin, and F. Zipp, Dendritic cells tip the balance towards induction of regulatory T cells upon priming in experimental autoimmune encephalomyelitis. J Autoimmun 67, 108-114 (2017)) by subcutaneous injection of 200 μg myelin oligodendrocyte […] 35-55 (MOG35-55) mixed with complete Freund adjuvant (CFA). Following the MOG35-55 immunization 400 ng pertussis toxin (PTX) was administered intraperitoneally at the day of immunizaton and after 24 h. Clinical signs were scored using the following parameters:
Treatment with rIL-4 (1 μg, Peprotech), Ph8 (1 μg, custom synthesized, Schafer N), Link4 (1 μg, custom synthesized, Schafer N) or vehicle (PBS) was performed during the chronic phase of the disease models by lumbar intrathecal injection (R. Lu and A. Schmidtko, Direct intrathecal drug delivery in mice for detecting in vivo effects of cGMP on pain processing. Methods Mol Biol 1020, 215-221 (2013)) or nasal application of IL-4 and Link4 was performed according to published procedures (C. F. Xiao, F. J. Davis, B. C. Chauhan, K. L. Viola, P. N. Lacor, P. T. Velasco, W. L. Klein, and N. B. Chauhan, Brain transit and ameliorative effects of intranasally delivered anti-amyloid-beta oligomer antibody in SXFAD mice. J Alzheimers Dis 35, 777-788 (2013)). Mice were pre-trained to avoid stress and held at a 45 degree angle to apply IL-4 solution (1 μg, Peprotech) to the nostrils using a pipette tip.

[3] = system: human H9 cell-derived neurons; test: Growth assay for human H9 cells; assay type: cell-based; conditions: 50 ng/ml, 24 h, vs PBS, FIG. 7B
From the text: B: Human Link4 induced neurite outgrowth in human H9 cell-derived neurons. Human neurons were cultivated with commercially available human neural stem cells (H9 cells), which were then differentiated to become neurons. […] The growth assay for human H9 cells described herein can be used to easily detect effects of the derivative peptides of the present invention on human neurons. In particular, this assay can be used to quickly test whether derivative peptides falling within the scope of the present invention are functional.
H9 human neural stem cells (H9 hNSCs) were purchased from Gibco and expanded according to the manufacturer's instructions. For consecutive neural differentiation hNSCs were harvested and reseeded on glass coverslips coated with Matrigel (High Concentration, Growth Factor Reduced; Corning; diluted 1:100 in Knockout DMEM [Gibco]) at a density of 25.000 cells/cm^2. hNSCs were allowed to rest for 48 hours in a basal neuronal medium (Neurobasal, 1X B27, 1x Glutamax, 1x Penicillin/Streptomycin, all from Gibco) before changing to EnStem A Neural Differentiation Medium (SCM017, Millipore) for a further 4 days. Cultures were treated with recombinant human IL-4 (Peprotech) or human Link4 at 50 ng/ml or equal volumes of PBS for 24 h. […]

[4] = system: mouse embryonic fibroblasts (Mef); test: CellTiter-blue cell viability assay (ctb), fibroblasts; assay type: cell-based; conditions: Mef cells, increasing concentrations, FIG. 2A
Experimental: (§3) Toxicity was checked by subjecting mouse embryonic fibroblasts (Mef) and the hippocampal cell line HT22 to a CellTiter-blue cell viability assay (ctb).
(§4) Mouse embryonic fibroblasts (Mef) (Sigma-Aldrich) and hippocampal HT22 (ThermoScientific) cells were cultured according to the manufacturer's protocols. Ctb assays were performed according to the manufacturer's protocols (Promega).

[5] = system: hippocampal cell line HT22; test: CellTiter-blue cell viability assay (ctb), hippocampal cell line; assay type: cell-based; conditions: HT22 cells, increasing concentrations, FIG. 2B
Experimental: as §3, §4

[6] = cited from earlier work
[7] = lumbar intrathecal injection, 1 μg every other day for 14 days

Molecule	differentiation of CD11b+ BMDMs into F80+CD206+ cells [1]	differentiation of CD4+ T cells into Gata3+ cells (CD4+ T cells)	clinical score [2, 7]	neurite outgrowth [3]	other results
LIRSELIEELSNITGSFITKLLSYTKQ (listed as Mus musculus) [Link13]	did not occur	did not take place	–	–	–
WNRSEIIKTGSKTIMREKY (listed as Homo sapiens) [human Link4]	–	–	equally effective as mouse Link4	increase neurite outgrowth	–
CC[C@H](C)[C@H](NC(=O)CNC(=O)[C@@H](NC(=O)[C@@H](NC(=O)[C@@H](N)CCC(=O)O)[C@@H](C)CC)[C@@H](C)CC)C(=O)NCC(=O)N1CCC[C@H]1C(=O)N[C@@H](CCCNC(=N)N)C(=O)N[C@@H](CC(C)C)C(=O)N[C@@H](Cc1ccccc1)C(=O)N[C@@H](CCCNC(=N)N)C(=O)N[C@@H](C)C(=O)N[C@@H](Cc1ccccc1)C(=O)N[C@@H](CCCNC(=N)N)C(=O)N[C@@H](CS)C(=O)N[C@@H](CO)C(=O)NCC(=O)N[C@@H](CO)C(=O)N[C@@H](CCCNC(=N)N)C(=O)N[C@@H](C)C(=O)N[C@@H](CO)C(=O)N[C@@H](CCCCN)C(=O)N[C@H](C(=O)N[C@@H](CC(C)C)C(=O)N[C@@H](CCCNC(=N)N)C(=O)N[C@H](C(=O)N[C@@H](Cc1ccccc1)C(=O)N[C@@H](Cc1ccc(O)cc1)C(=O)N[C@@H](CC(C)C)C(=O)O)[C@@H](C)CC)C(C)C [AvoC] (H-EIIGIGPRLFRAFRCSGSRASKVLRIFYL-OH; N-terminus and C-terminus assumed)	–	–	–	–	toxic effects on fibroblasts (cell viability) [4]: no toxic effects; toxic effects on hippocampal neurons (cell viability) [5]: no toxic effects
interleukin-4 [IL-4]	increased the expression of the differentiation markers F80 and CD206	observed	ameliorate clinical symptoms; also recorded: significant improvement in the clinical score; also recorded: significant amelioration of the clinical score	–	clinical score ([2]; lumbar intrathecal injection, 1 μg every other day for 14 days, listed as mouse full length IL-4): reducing disease symptoms; clinical score ([2]; nasal application): equally effective; also recorded: significant improvement in the clinical score; also recorded: beneficial; half-life in blood plasma [6]: very short half-life
full length IL-4: recombinant human IL-4 (Peprotech) used on human H9 cell-derived neurons (protein, UniProt P05112 25-153, looked up) Interleukin-4: HKCDITLQEIIKTLNSLTEQKTLCTELTVTDIFAASKNTTEKETFCRAATVLRQFYSHHEKDTRCLGATAQQFHRHKQLIRFLKRLDRNLWGLAGLNSCPVKEANQSTLENFLERLKTIMREKYSKCSS	–	–	–	increase neurite outgrowth	–
